These results are taken from article PMC9694334, “Synthesis and Biological Evaluation of a Fused Structure of Indolizine and Pyrrolo[1,2-c]pyrimidine: Identification of Its Potent Anticancer Activity against Liver Cancer Cells” (Pharmaceuticals, 2022).

What all share (format): cell-based
The subject of one experiment is HT29 cells. Description: Cell viability assay (MTS) in HT29 cells. To be noted: mean, n = 3. As for the experimental part:
(§1) HepG2, Huh7, H1299, HT29, AGS and A549 cells were purchased from the Korean Cell Line Bank (Seoul, Korea) and HaCaT cells were obtained from Prof. Sohee Kwon (Yonsei University, Korea). Liver cancer cells (HepG2), human keratinocyte cells (HaCaT), and lung cancer cells (A549) were grown in DMEM high-glucose medium, liver cancer cells (Huh7) and non-small cell lung cancer cells (H1299) were grown in RPMI 1640, and gastric cancer cells (AGS) were grown in Coon’s modified F12 medium. All media were supplemented with 10% FBS, 100 Units/mL penicillin, and 100 μg/mL streptomycin. All cells were incubated at 37 °C, 5% CO2 and 95% humidity.
(§2) Cell viability assay was conducted using Cell Titer 96® AQueous One Solution Cell proliferation Assay kit (Promega, Madison, WI, USA). Five cancer cells and HaCaT cells were plated in 96-well microplates with growth medium for 24 h. When cell confluency reached ~30%, cells were treated with DMSO (vehicle) and test compounds. The medium and test compounds were replaced every 24 h. To measure cell viability, the cells were incubated with MTS solution for 1 h. The absorbance was measured by using Infinite M200 microplate reader (Tecan, Männedorf, Switzerland) at 490 nm.

Another experiment concerns HepG2 cells. Description: Cell viability assay (MTS) in HepG2 cells. The settings on record: 10 μM, mean, n = 3. On the procedure: as §1, §2
(§3) Figure 2 Effect of 5r on cell viability in HepG2, Huh7, AGS, H1299, A549, HaCaT, NIH3T3, and HEK293T cells. (A–H) HepG2, Huh7, AGS, H1299, A549, HaCaT, NIH3T3, and HEK293T cells were cultured with 5r at the indicated concentrations for 72 h, and medium was replaced every 24 h with freshly added 5r. Cell viability was measured by MTS analysis (mean ± S.D., n = 5). * p < 0.05, ** p < 0.01, *** p < 0.001.

A further experiment relates to AGS cells. Description: Cell viability assay (MTS) in AGS cells. To be noted: 10 μM, mean, n = 3. On the procedure: as §1, §2, §3
For another experiment, the system named is H1299 cells. Description: Cell viability assay (MTS) in H1299 cells. The settings on record: 10 μM, mean, n = 3. As for the experimental part: as §1, §2, §3
The subject of the next experiment is A549 cells. Description: Cell viability assay (MTS) in A549 cells. The settings on record: 10 μM, mean, n = 3. As for the experimental part:
as §1, §2, §3

In the case of `N#Cc1c2c3cccn3c(-c3ccc(Br)cc3)nc2n2ccccc12` [Compound 5i, 5-(4-Bromophenyl)pyrrolo[1′,2′:1,6]pyrimido[5,4-b]indolizine-12-carbonitrile], the “% Inhibition of Cell Viability at 10 μM HT29” value (“% Inhibition … at 10 μM HT29” for short) with HT29 cells is listed as less than 25%. For the same compound, the “% Inhibition of Cell Viability at 10 μM HepG2” value (“% Inhibition … at 10 μM HepG2” below) in the experiment with HepG2 cells is recorded as 87.4%. Moreover, in the experiment on AGS cells, the “% Inhibition of Cell Viability at 10 μM AGS” value (“% Inhibition … at 10 μM AGS” below) is reported as less than 25%. Moreover, in the experiment on H1299 cells, the “% Inhibition of Cell Viability at 10 μM H1299” value (from here on “% Inhibition … at 10 μM H1299”) is reported as 92.1%. Further, the “% Inhibition of Cell Viability at 10 μM A549” value (“% Inhibition … at 10 μM A549” for short) in the experiment with A549 cells amounted to 36.7%.

For the compound `N#Cc1c2c3cccn3c(-c3ccccn3)nc2n2ccccc12` [Compound 5k, 5-(Pyridin-2-yl)pyrrolo[1′,2′:1,6]pyrimido[5,4-b]indolizine-12-carbonitrile], in the experiment on HT29 cells, the “% Inhibition … at 10 μM HT29” value was found to be 28.8%. The “% Inhibition … at 10 μM HepG2” value in the experiment with HepG2 cells is given as 90.6%. Moreover, in the experiment on AGS cells, the “% Inhibition … at 10 μM AGS” value is listed as less than 25%. Further, the “% Inhibition … at 10 μM H1299” value with H1299 cells is 83.8%. The “% Inhibition … at 10 μM A549” value in the experiment with A549 cells is on record as 29.0%.

`N#Cc1c2c3[nH]c4ccccc4c3c(-c3ccc(Br)cc3)nc2n2ccccc12` [Compound 10c, 7-(4-Bromophenyl)-12H-indolizino[2′,3′:5,6]pyrido[4,3-b]indole-13-carbonitrile]: the “% Inhibition … at 10 μM HT29” value in the experiment on HT29 cells is on record as less than 25%. Besides, the “% Inhibition … at 10 μM HepG2” value in the experiment on HepG2 cells is 39.6%. In addition, in the experiment on AGS cells, the “% Inhibition … at 10 μM AGS” value was less than 25%. For the same compound, the “% Inhibition … at 10 μM H1299” value in the experiment with H1299 cells is less than 25%. Also, the “% Inhibition … at 10 μM A549” value with A549 cells is less than 25%.

For the compound `COC(=O)c1ccc(-c2nc3c(c(C#N)c4ccccn43)c3cccn23)cc1` [Compound 5j, Methyl 4-(12-cyanopyrrolo[1′,2′:1,6]pyrimido[5,4-b]indolizin-5-yl)benzoate], the “% Inhibition … at 10 μM HT29” value in the experiment on HT29 cells is given as less than 25%. In addition, the “% Inhibition … at 10 μM HepG2” value with HepG2 cells was found to be 42.2%. The “% Inhibition … at 10 μM AGS” value in the experiment with AGS cells is less than 25%. The “% Inhibition … at 10 μM H1299” value in the experiment on H1299 cells came out at 52.8%. Further, in the experiment with A549 cells, the “% Inhibition … at 10 μM A549” value was less than 25%.

For `N#Cc1c2c3[nH]c4ccccc4c3c(-c3ccccc3)nc2n2ccccc12` [Compound 10a, 7-Phenyl-12H-indolizino[2′,3′:5,6]pyrido[4,3-b]indole-13-carbonitrile], in the experiment on HT29 cells, the “% Inhibition … at 10 μM HT29” value amounted to 61.2%. Also, the “% Inhibition … at 10 μM HepG2” value in the experiment on HepG2 cells is on record as less than 25%. The “% Inhibition … at 10 μM AGS” value with AGS cells came to 48.4%. Also, in the experiment with H1299 cells, the “% Inhibition … at 10 μM H1299” value came to 68.8%. For the same compound, the “% Inhibition … at 10 μM A549” value with A549 cells is listed as 45.9%.

With `COc1cc(OC)cc(-c2nc3c(c(C#N)c4ccccn43)c3cccn23)c1` [Compound 5d, 5-(3,5-Dimethoxyphenyl)pyrrolo[1′,2′:1,6]pyrimido[5,4-b]indolizine-12-carbonitrile], in the experiment on HT29 cells, the “% Inhibition … at 10 μM HT29” value is less than 25%. The “% Inhibition … at 10 μM HepG2” value in the experiment on HepG2 cells was 57.3%. Also, the “% Inhibition … at 10 μM AGS” value in the experiment with AGS cells is on record as less than 25%. The “% Inhibition … at 10 μM H1299” value in the experiment on H1299 cells is given as 83.4%. Also, the “% Inhibition … at 10 μM A549” value in the experiment on A549 cells is given as less than 25%.

`N#Cc1c2c3cccn3cnc2n2ccccc12` [Compound 8, Pyrrolo[1′,2′:1,6]pyrimido[5,4-b]indolizine-12-carbonitrile]: the “% Inhibition … at 10 μM HT29” value in the experiment on HT29 cells is less than 25%. The “% Inhibition … at 10 μM HepG2” value in the experiment on HepG2 cells is less than 25%. Also, the “% Inhibition … at 10 μM AGS” value in the experiment on AGS cells is less than 25%. Also, in the experiment on H1299 cells, the “% Inhibition … at 10 μM H1299” value was less than 25%. Also, the “% Inhibition … at 10 μM A549” value in the experiment on A549 cells is listed as less than 25%.

With `COc1ccc(-c2nc3c(c(C#N)c4ccccn43)c3cccn23)cc1OC` [Compound 5c, 5-(3,4-Dimethoxyphenyl)pyrrolo[1′,2′:1,6]pyrimido[5,4-b]indolizine-12-carbonitrile], in the experiment with HT29 cells, the “% Inhibition … at 10 μM HT29” value is reported as 44.0%. Besides, the “% Inhibition … at 10 μM HepG2” value in the experiment with HepG2 cells is listed as 76.7%. In addition, the “% Inhibition … at 10 μM AGS” value in the experiment on AGS cells was 56.0%. In addition, the “% Inhibition … at 10 μM H1299” value with H1299 cells is 94.0%. Moreover, in the experiment on A549 cells, the “% Inhibition … at 10 μM A549” value is 47.1%.
